Strand notation (5' to 3'): a small letter for the sugar, then the base; units joined by * are phosphorothioate-linked, units joined directly phosphodiester-linked; [ ] holds rarer units or linkages, { } end groups; capitals alone tell only the bases. e = 2'-O-(2-methoxyethyl) (MOE); [5mC] = 5-methylcytosine; d = 2'-deoxy (DNA)
Legend:
[1] = system: SGLT2 mRNA; test: SGLT2 mRNA in kidney of Balb/c mice, twenty 1-10-1 MOE gapmers, PPS 534 and PPS 553 (Table 74); assay type: in vivo, mouse; details: i.p. 350 nmol/kg twice per week for two weeks
Experimental: Twenty 1-10-1 MOE gapmers that are complementary to human/monkey/mouse/rat SGLT2 were designed, synthesized and tested in vivo for suppression of SGLT2 mRNA levels in kidney. Data are averages from two experiments in which male 6-week old Balb/c mice were administered intraperitoneal injections of 350 nmol/kg of oligonucleotide, twice per week, over a period of two weeks (a total of four injections). Mice were sacrificed 48 hours following the last administration and evaluated for SGLT2 mRNA levels in kidney. SGLT2 mRNA levels were determined by quantitative real-time PCR analysis according to standard procedures, using two different PCR primer probe sets, primer probe set (PPS) 534 and PPS 553. SGLT2 mRNA levels were normalized to cyclophilin mRNA levels, which were also measured by quantitative real-time PCR.

[2] = system: PTP1B mRNA; test: Dose response for human PTP1B in HuVEC cells, PPS 198 and PPS 3000 (Tables 86, 87); assay type: cell-based
Experimental: Human vascular endothelial (HuVEC) cells were plated at a density of 5000 cells per well and treated as described herein with nM concentrations of short antisense compound as indicated in Table 86. After the treatment period, RNA was isolated from the cells and PTP1B mRNA levels were measured by quantitative real-time PCR, as described herein. PTP1B mRNA levels were adjusted according to total RNA content as measured by RIBOGREEN®. Two different human PTP1B primer probe sets were used to measure mRNA levels. Results with Primer Probe Set (PPS) 198 are shown in Table 86, and results with Primer Probe Set (PPS) 3000 are shown in Table 87. Results are presented as percent inhibition of PTP1B mRNA expression relative to untreated control cells.

[3] = system: PCSK9 mRNA; assay type: cell-based, human; details: Hep3B cells, 100 nM, relative to untreated control cells
Experimental: (§1) When cells reached appropriate confluency, they were treated with oligonucleotide using LIPOFECTIN® as described. […] Cells were treated and data were obtained in duplicate or triplicate. […] Cells were harvested 16-24 hours after oligonucleotide treatment.
Prior to quantitative PCR analysis, primer-probe sets specific to the target gene being measured were evaluated for their ability to be “multiplexed” with a GAPDH amplification reaction. After isolation the RNA is subjected to sequential reverse transcriptase (RT) reaction and real-time PCR, both of which are performed in the same well. RT and PCR reagents were obtained from Invitrogen Life Technologies (Carlsbad, Calif.). […] The RT reaction was carried out by incubation for 30 minutes at 48° C. Following a 10 minute incubation at 95° C. to activate the PLATIN 9M® Taq, 40 cycles of a two-step PCR protocol were carried out: 95° C. for 15 seconds (denaturation) followed by 60° C. for 1.5 minutes (annealing/extension).
170 μL of RiboGreen® working reagent (RiboGreen® reagent diluted 1:350 in 10 mM Tris-HCl, 1 mM EDTA, pH 7.5) was pipetted into a 96-well plate containing 30 μL purified cellular RNA. The plate was read in a CytoFluor® 4000 (PE Applied Biosystems) with excitation at 485 nm and emission at 530 nm.
Short antisense compounds targeted to a PCSK9 nucleic acid were tested for their effects on PCSK9 mRNA in vitro. The Isis No, gapmer motif and SEQ ID NO of each short antisense compound are shown again in Table 75. Cultured Hep3B cells were treated with 100 nM of short antisense compound. 5-10-5 MOE gapmers targeted to a PCSK9 nucleic acid were used as positive controls. After the treatment period, RNA was isolated from the cells and PCSK9 mRNA levels were measured by quantitative real-time PCR, as described herein. PCSK9 mRNA levels were adjusted according to total RNA content as measured by RIBOGREEN®. Results are presented in Table 75 as percent inhibition of PCSK9 (% Inhib), relative to untreated control cells.

[4] = system: PCSK9 mRNA; test: Dose-dependent antisense inhibition of PCSK9 in Hep3B cells, EC50 (Table 76); assay type: cell-based, human
Experimental: as §1
Short antisense compounds targeted to a PCSK9 nucleic acid were tested in a dose response experiment Hep3B cells. After the treatment period, RNA was isolated from the cells and PCSK9 mRNA levels were measured by quantitative real-time PCR, as described herein. PCSK9 mRNA levels were normalized to cyclophilin mRNA levels, as measured by real-time PCR using a cyclophilin-specific primer probe set. Results are presented as percent inhibition of PCSK9, relative to untreated control cells. […] As illustrated in the following table, PCSK9 mRNA levels were reduced in a dose-dependent manner.

[5] = primer probe set 534, normalized to cyclophilin
[6] = primer probe set 553, normalized to cyclophilin

Q: For “370717 (antisense eT*dA*dG*d[5mC]*d[5mC]*dA*d[5mC]*d[5mC]*dA*dA*d[5mC]*eT) [compound 370717]”, which “% change in SGLT2 mRNA vs saline” value [1, 5] is on record?
A: Its value is −84.4 % Saline.

Q: What about the “% change in SGLT2 mRNA vs saline” value [1, 6] of the same substance?
A: The value was −84.3 % Saline.

Q: Which results are given for “379684 (antisense eT*dG*dT*d[5mC]*dA*dG*d[5mC]*dA*dG*dG*dA*eT) [compound 379684]”?
A: % change in SGLT2 mRNA vs saline [1, 5]: −45.0 % Saline; % change in SGLT2 mRNA vs saline [1, 6]: −43.2 % Saline

Q: How did the “% Inhibition” value ([2]; PPS 198, 1.11 nM) turn out when “399173 (eA*eT*dG*d[5mC]*dT*dA*dG*dT*dG*d[5mC]*dA*d[5mC]*eT*eA; antisense) [compound 399173]” was run?
A: The value was 0%.

Q: And the “% Inhibition” value ([2]; PPS 198, 3.33 nM)?
A: Its value is 24%.

Q: What about the “% Inhibition” value ([2]; PPS 198, 10.0 nM) of the same substance?
A: The value was 63%.

Q: What about the “% Inhibition” value ([2]; PPS 198, 30.0 nM) of the same substance?
A: The value was 89%.

Q: And the “% Inhibition” value ([2]; PPS 3000, 1.11 nM)?
A: Its value is 0%.

Q: And the “% Inhibition” value ([2]; PPS 3000, 3.33 nM)?
A: The value was 11%.

Q: What about the “% Inhibition” value ([2]; PPS 3000, 10.0 nM) of the same substance?
A: The value was 59%.

Q: And the “% Inhibition” value ([2]; PPS 3000, 30.0 nM)?
A: Its value is 92%.

Q: What does the source list for “399208 (eA*eG*d[5mC]*dT*d[5mC]*dG*d[5mC]*dT*dA*d[5mC]*d[5mC]*dT*e[5mC]*eT; antisense) [compound 399208]”?
A: % Inhibition ([2]; PPS 198, 1.11 nM): 0%; % Inhibition ([2]; PPS 198, 3.33 nM): 37%; % Inhibition ([2]; PPS 198, 10.0 nM): 86%; % Inhibition ([2]; PPS 198, 30.0 nM): 93%; % Inhibition ([2]; PPS 3000, 1.11 nM): 0%; % Inhibition ([2]; PPS 3000, 3.33 nM): 47%; % Inhibition ([2]; PPS 3000, 10.0 nM): 85%; % Inhibition ([2]; PPS 3000, 30.0 nM): 96%

Q: “399276 (eG*eA*dG*dG*dT*dA*dT*d[5mC]*d[5mC]*d[5mC]*dA*dT*e[5mC]*eT; antisense) [compound 399276]” was tested. Which “% Inhibition” value ([2]; PPS 198, 1.11 nM) did it give?
A: Its value is 0%.

Q: What about the “% Inhibition” value ([2]; PPS 198, 3.33 nM) of the same substance?
A: Its value is 8%.

Q: And the “% Inhibition” value ([2]; PPS 198, 10.0 nM)?
A: The value was 61%.

Q: And the “% Inhibition” value ([2]; PPS 198, 30.0 nM)?
A: Its value is 89%.

Q: And the “% Inhibition” value ([2]; PPS 3000, 1.11 nM)?
A: The value was 0%.

Q: What about the “% Inhibition” value ([2]; PPS 3000, 3.33 nM) of the same substance?
A: The value was 14%.

Q: And the “% Inhibition” value ([2]; PPS 3000, 10.0 nM)?
A: The value was 64%.

Q: What about the “% Inhibition” value ([2]; PPS 3000, 30.0 nM) of the same substance?
A: The value was 86%.

Q: Which results are given for “399315 (antisense eG*eG*d[5mC]*dA*dA*d[5mC]*dT*dT*d[5mC]*dA*dA*d[5mC]*e[5mC]*eT) [compound 399315]”?
A: % Inhibition ([2]; PPS 198, 1.11 nM): 0%; % Inhibition ([2]; PPS 198, 3.33 nM): 20%; % Inhibition ([2]; PPS 198, 10.0 nM): 68%; % Inhibition ([2]; PPS 198, 30.0 nM): 88%; % Inhibition ([2]; PPS 3000, 1.11 nM): 0%; % Inhibition ([2]; PPS 3000, 3.33 nM): 25%; % Inhibition ([2]; PPS 3000, 10.0 nM): 71%; % Inhibition ([2]; PPS 3000, 30.0 nM): 93%

Q: Which “% Inhibition Range” value [3] does the source give for “400307 (antisense e[5mC]*eG*dG*d[5mC]*d[5mC]*dG*d[5mC]*dT*dG*dA*d[5mC]*d[5mC]*eA*e[5mC]) [compound 400307]” here?
A: Its value is 70-80%.

Q: What about the “% Inhib” value ([3]; 0 = no reduction observed) of the same substance?
A: The value was 76%.

Q: And the “% Inhibition” value ([4]; 5 nM)?
A: Its value is 35%.

Q: What about the “% Inhibition” value ([4]; 10 nM) of the same substance?
A: Its value is 39%.

Q: And the “% Inhibition” value ([4]; 20 nM)?
A: The value was 45%.

Q: And the “% Inhibition” value ([4]; 40 nM)?
A: The value was 56%.

Q: What about the “% Inhibition” value ([4]; 80 nM) of the same substance?
A: The value was 92%.

Q: What about the “% Inhibition” value ([4]; 160 nM) of the same substance?
A: The value was 93%.
